PubChem BioAssay (NCI)
“And” between values parts separate entries of the source, which are not always exact repeats. Equal entries are not always repeated.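 These data come from cells grown in 96-well plates and exposed to compound for 48 hours at five concentrations. GI50 = concentration required for 50% inhibition of growth. Definition used: TGI = concentration required for complete inhibition of growth.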

Legend:
Experiment in all cases: NCI anticancer screen, dose series, 48 h
[1] = tested on: A498 renal
[2] = tested on: M14 melanoma
[3] = tested on: MCF7 breast
[4] = tested on: NCI-H226 lung
[5] = tested on: NCI-H460 lung
[6] = tested on: SF-539 CNS
[7] = tested on: SK-MEL-2 melanoma
[8] = tested on: SK-MEL-5 melanoma
[9] = tested on: SR leukemia
[10] = tested on: T-47D breast

Compound	GI50 [1]	TGI [1]	GI50 [2]	TGI [2]	GI50 [3] [µM]	TGI [3] [µM]	GI50 [4] [µM]	TGI [4]	GI50 [5]	TGI [5]	GI50 [6]	TGI [6]	GI50 [7]	TGI [7]	GI50 [8] [µM]	TGI [8] [µM]	GI50 [9] [µM]	TGI [9]	GI50 [10] [µM]	TGI [10] [µM]
COc1ccc(C(=O)c2no[n+]([O-])c2C(=O)c2ccc(OC)cc2)cc1	15.6 µM	29.2 µM	3.5 µM	11.7 µM	4.42	18.2	25.8	> 64.3 µM	17.2 µM	33.5 µM	2.19 µM	4.97 µM	6.59 µM	23.1 µM	12.6	25.1	0.726	3.22 µM	–	–
CC(C)CC1CC2C(=O)N(c3ccccc3)C(=O)C2c2[nH]c3ccccc3c21 (stereo not drawn)	–	> 51.3 µM	–	> 100 µM	–	–	–	66.1 µM	–	> 100 µM	–	99.4 µM	–	59.8 µM	–	> 100	–	76.4 µM	–	–
CC(=O)CC(=O)Nc1ccc(OS(N)(=O)=O)cc1	–	> 100 µM	–	> 100 µM	–	–	–	> 100 µM	–	> 100 µM	–	> 100 µM	–	> 100 µM	–	> 100	–	> 100 µM	–	–
CC[C@@]1(O)C(=O)OCc2c1cc1n(c2=O)Cc2cc3c(N)c(OC)ccc3nc2-1	0.156 µM	0.726 µM	0.0403 µM	0.339 µM	–	–	1.77	> 100 µM	0.013 µM	0.111 µM	0.0139 µM	0.0932 µM	0.439 µM	1.47 µM	0.0739	0.234	< 0.01	–	–	–
O=C1C[C@@H]2[C@@H](C=CC23CCCC3)N1O	–	> 100 µM	–	> 100 µM	–	–	–	> 100 µM	–	> 100 µM	–	> 100 µM	–	> 100 µM	–	> 100	–	–	–	–
NNC(=S)N/N=C(\c1nc2ccc(Cl)cc2[nH]c1=O)C(O)c1cccc([N+](=O)[O-])c1 (stereo not drawn)	–	> 100 µM	–	> 88 µM	–	–	–	> 100 µM	–	> 100 µM	–	> 47.5 µM	–	> 100 µM	–	> 100	–	33.8 µM	–	–
COc1ccc(C2=NC(CO)[C@H](c3ccccc3)O2)cc1OC (stereo partly drawn)	–	> 100 µM	–	> 100 µM	–	–	–	> 100 µM	–	> 100 µM	–	> 100 µM	–	> 100 µM	–	> 100	–	–	–	–
CCOC(=O)N1C/C(=C\c2ccc(N(C)C)cc2)C(=O)/C(=C/c2ccc(N(C)C)cc2)C1	–	> 100 µM	–	> 100 µM	–	–	–	–	–	> 100 µM	–	> 100 µM	–	> 100 µM	–	> 100	–	> 100 µM	–	–
NC(=O)c1c(-c2ccccc2)c(-c2ccccc2)cc2c(=O)c3ccccc3[nH]c12	–	39.7 µM	–	> 100 µM	–	–	–	–	–	76.8 µM	–	37.4 µM	–	45.1 µM	–	32.2	–	–	–	–
CC[P+](C)(C)CC	–	–	–	> 100 µM	–	–	–	> 100 µM	–	> 100 µM	–	> 100 µM	–	> 100 µM	–	> 100	–	> 100 µM	–	–
COc1cc(Br)c(C=Nc2cccc3ccc(OS(=O)(=O)c4ccc([N+](=O)[O-])cc4)cc23)cc1OC	–	> 100 µM	–	–	–	–	–	> 100 µM	–	> 100 µM	–	> 100 µM	–	> 100 µM	–	> 100	–	> 100 µM	–	–
O=C1CC[C@@H]2[C@H]3CCC(=O)c4c3c(c3cccc(O)c3c4O)O[C@@]23C(=O)c2cccc(O)c2C(O)=C13	–	–	–	–	> 100	> 100	> 100	> 100 µM	> 100 µM	> 100 µM	> 100 µM	> 100 µM	74.4 µM	> 100 µM	> 100	> 100	> 100	> 100 µM	–	–
N/N=C1\C(=O)N(c2ccc(Cl)c(Cl)c2)C(=O)C1C(=O)Nc1ccc(Cl)c(Cl)c1 (stereo not drawn)	–	> 100 µM	–	> 100 µM	–	–	–	–	–	> 100 µM	–	> 100 µM	–	> 100 µM	–	69.6	–	–	–	–
Cc1c(C(=O)Nc2ccc(Oc3ccnc4cc(OCC(C)(C)O)ccc34)c(F)c2)c(=O)n(-c2ccccc2)n1C	–	–	2.47 µM	> 100 µM	–	–	–	–	–	–	1.46 µM	> 100 µM	–	–	–	–	3.66	> 100 µM	2.79	> 100
CCOC(=O)C(c1ccsc1)P(=O)(OCC)OCC (stereo not drawn)	–	–	–	26.3 µM	–	–	–	35.8 µM	–	66.4 µM	–	30.2 µM	–	39.9 µM	–	29.4	–	–	–	–
COc1ccc(-c2cc(-c3ccco3)c(C#N)c(=O)n2C2OC(COC(C)=O)C(OC(C)=O)C(OC(C)=O)C2OC(C)=O)cc1 (stereo not drawn)	> 100 µM and 22 µM	> 100 µM and 75.8 µM	> 100 µM and 23.2 µM	> 100 µM and 52.5 µM	–	–	–	–	35.8 µM and 8.76 µM	> 100 µM and 81 µM	> 100 µM and 11.7 µM	> 100 µM and 23.9 µM	> 100 µM and 14.5 µM	> 100 µM and 50.8 µM	–	> 100	–	> 100 µM	–	–
CN(C)c1ccc(-c2nc(N)nc3c2CCCC3)cc1	–	> 100 µM	–	> 100 µM	–	–	–	> 100 µM	–	> 100 µM	–	> 100 µM	–	> 100 µM	–	> 100	–	–	–	–
Cc1nc2ccccc2c(/C=C/c2ccc(C(F)(F)F)cc2)c1C(=O)/C=C/c1ccccc1	1.69 µM	3.13 µM	–	–	–	–	1.6	3.14 µM	1.13 µM	2.57 µM	1.72 µM	3.13 µM	1.76 µM	3.64 µM	1.69	3.05	–	–	1.07	3.13

Compound	GI50 [1]	TGI [1]	GI50 [2]	TGI [2]	GI50 [3] [µM]	TGI [3] [µM]	GI50 [4] [µM]	TGI [4]	GI50 [5]	TGI [5]	GI50 [6]	TGI [6]	GI50 [7]	TGI [7]	GI50 [8] [µM]	TGI [8] [µM]	GI50 [9] [µM]	TGI [9]	GI50 [10] [µM]	TGI [10] [µM]
CN1C=C(C(N)=O)Cc2ccsc21	–	–	–	> 100 µM	–	–	–	> 100 µM	–	> 100 µM	–	> 100 µM	–	> 100 µM	–	> 100	–	> 100 µM	–	–
Cc1ccc(C)c(NC(=O)C(=O)C(C2C(C)CC(=O)C2CC(=O)O)[N+](=O)[O-])c1 (stereo not drawn)	–	> 100 µM	–	> 100 µM	–	–	–	> 100 µM	–	> 100 µM	–	> 100 µM	–	> 100 µM	–	> 100	–	> 100 µM	–	–
CCCCCCCCCCCCNC(=S)OCCCC	–	> 100 µM	–	> 100 µM	–	–	–	–	–	> 100 µM	–	> 100 µM	–	62.2 µM	–	> 100	–	> 100 µM	–	–
Nc1ncnc2c1ncn2C1(CO)OC(CO)C(O)C1O (stereo not drawn)	–	> 100 µM	–	> 100 µM	–	–	–	> 100 µM	–	> 100 µM	–	–	–	> 100 µM	–	> 100	–	> 100 µM	–	–
Cc1ccccc1-c1cc(=O)c2cc(C)c(C)c(C(=O)O)c2o1	–	–	–	> 100 µM	–	–	–	> 100 µM	–	> 100 µM	–	> 100 µM	–	> 100 µM	–	> 100	–	> 100 µM	–	–
COC(=O)C(C(=O)C(=O)Nc1nc2ccc(OC)cc2s1)c1cnc2ccccc2n1 (stereo not drawn)	–	> 100 µM	–	> 100 µM	–	–	–	> 100 µM	–	> 100 µM	–	> 100 µM	–	–	–	> 100	–	–	–	–
O=S(=O)(c1ccccc1)C1(C2(S(=O)(=O)c3ccccc3)CCN=N2)CCN=N1 (stereo not drawn)	–	–	–	> 100 µM	–	–	–	> 100 µM	–	> 100 µM	–	> 100 µM	–	> 100 µM	–	–	–	> 100 µM	–	–
Cc1cc(N)c2cc(NC(=O)/C=C\c3ccccc3Cl)ccc2n1	1.5 µM	2.95 µM	0.748 µM	2.02 µM	–	–	2.01	3.69 µM	1.19 µM	2.7 µM	1.69 µM	3.07 µM	1.83 µM	3.34 µM	1.46	2.8	–	–	–	–
CCOC(=O)c1ccc(N[C@@H]2c3cc4c(cc3C(c3cc(OC)c(O)c(OC)c3)[C@H]3C(=O)OCC32)OCO4)cc1 (stereo partly drawn)	0.332 µM	1.92 µM	0.353 µM	4.32 µM	–	20.3	–	0.719 µM and 1.95 µM	0.0385 µM	1.33 µM	0.34 µM	0.951 µM and 1.97 µM	–	6.27 µM	0.379	2.95	0.0303	0.32 µM and 0.742 µM	–	–
C=CCN=C1NC(=O)C(CC(=O)Nc2ccc([N+](=O)[O-])cc2[N+](=O)[O-])S1 (stereo not drawn)	–	> 100 µM	–	> 100 µM	–	–	–	> 100 µM	–	> 100 µM	–	> 100 µM	–	> 100 µM	–	> 100	–	–	–	–
COc1ccc(C)cc1-c1ccc(-c2cc(C)ccc2OC)o1	–	> 100 µM	–	> 100 µM	–	–	–	> 100 µM	–	> 100 µM	–	> 100 µM	–	> 100 µM	–	–	–	–	–	–
CCCOC(=O)C1C(c2ccc(OC)cc2)NC(c2ccc(OC)cc2)C(C(=O)OCCC)S1(=O)=O (stereo not drawn)	–	> 100 µM	> 100 µM	> 100 µM	–	–	> 100	> 100 µM	–	–	> 100 µM	> 100 µM	> 100 µM	> 100 µM	> 100	> 100	–	> 100 µM	–	–
CC1(C)CCOC(Sc2ccccc2)C1 (stereo not drawn)	–	> 100 µM	–	> 100 µM	–	–	–	–	–	> 100 µM	–	–	–	69.9 µM	–	52.9	–	> 100 µM	–	–
O=C1c2ccccc2C(=O)N1CCN(CCN1C(=O)c2ccccc2C1=O)Cc1ccccc1	–	> 100 µM	–	> 100 µM	–	–	–	–	–	> 100 µM	–	–	–	> 100 µM	–	> 100	–	> 100 µM	–	–
O=C1CC2=CCCC2O1 (stereo not drawn)	–	> 100 µM	–	> 100 µM	–	–	–	–	–	> 100 µM	–	> 100 µM	–	> 100 µM	–	> 100	–	–	–	–
O=C1C=C(c2ccccc2)NC1(c1ccccc1)c1cc(-c2ccccc2)[nH]c1-c1ccccc1 (stereo not drawn)	–	> 100 µM	–	> 100 µM	–	–	–	–	–	> 100 µM	–	> 100 µM	–	> 100 µM	–	–	–	> 100 µM	–	–
COC(=O)N1C=CC2=C(C)C3Nc4ccccc4C3C(C)=C2C1 (stereo not drawn)	–	> 100 µM	–	8.29 µM	–	–	–	5.1 µM	–	11.6 µM	–	17.2 µM	–	2.95 µM	–	37.2	–	–	–	–
